Test results as given in patent publication US11445724B2, “Insecticidal compounds” (SYNGENTA PARTICIPATIONS AG, priority 2013, dated 2022).

How the values were obtained:
Assay type in all cases: in vivo
[1] = tested on: Spodoptera littoralis (Egyptian cotton leafworm); test: Spodoptera littoralis (Egyptian cotton leafworm) mortality, sprayed cotton leaf discs; settings: foliar, 72 h, 200 ppm spray on cotton leaf discs, L1 larvae, mortality 3 DAT
[2] = tested on: Tetranychus urticae (Two-spotted spider mite); test: Tetranychus urticae (Two-spotted spider mite) mortality, sprayed bean leaf discs; settings: foliar, 192 h, 200 ppm spray on bean leaf discs, mixed ages, egg, larval and adult mortality after 8 days
[3] = tested on: Thrips tabaci (Onion thrips); test: Thrips tabaci (Onion thrips) mortality, sprayed sunflower leaf discs; settings: foliar, 168 h, 200 ppm spray on sunflower leaf discs, mixed ages, mortality after 7 days
[4] = tested on: Myzus persicae (Green peach aphid); test: Myzus persicae (Green peach aphid) mortality, test compounds mixed with Sucrose solution under Parafilm; settings: 120 h, 12.5 ppm in Sucrose solution, infested pea seedlings on Parafilm, mortality 5 days after infestation
[5] = tested on: Plutella xylostella (Diamond back moth); test: Plutella xylostella (Diamond back moth) larval mortality, artificial diet in 24-well MTP; settings: 144 h, application rate 200 ppm (concentration in well 18 ppm), L2 larvae, larval mortality after 6 days
[6] = tested on: Myzus persicae (Green peach aphid); test: Myzus persicae (Green peach aphid) mortality, sprayed sunflower leaf discs; settings: foliar, 144 h, 200 ppm spray on sunflower leaf discs, mixed ages, mortality 6 DAT
[7] = tested on: Diabrotica balteata (Corn root worm); test: Diabrotica balteata (Corn root worm) larval mortality, artificial diet in 24-well MTP; settings: 120 h, application rate 200 ppm (concentration in well 18 ppm), L2 larvae, larval mortality after 5 days

CCN(C(=O)c1ccc([N+](=O)[O-])cc1Cl)c1cccc(C(=O)Nc2c(Br)cc(C(F)(C(F)(F)F)C(F)(F)F)cc2OC(F)F)c1OC [Compound 135]
≥ 80%: pest or weed control at 200 ppm [1] | pest or weed control at 200 ppm [2] | pest or weed control at 200 ppm [3] | pest or weed control at 12.5 ppm [4] | pest or weed control at 200 ppm [5] | pest or weed control at 200 ppm [6] | pest or weed control at 200 ppm [7]

CCN(C(=O)c1ccc(F)cc1)c1cccc(C(=O)Nc2c(Br)cc(C(F)(C(F)(F)F)C(F)(F)F)cc2OC(F)F)c1OC [Compound 139]
≥ 80%: pest or weed control at 200 ppm [1] | pest or weed control at 200 ppm [2] | pest or weed control at 200 ppm [3] | pest or weed control at 12.5 ppm [4] | pest or weed control at 200 ppm [5] | pest or weed control at 200 ppm [6] | pest or weed control at 200 ppm [7]

CCN(C(=O)c1ccc(F)cc1Cl)c1cccc(C(=O)Nc2c(Br)cc(C(F)(C(F)(F)F)C(F)(F)F)cc2OC(F)F)c1OC [Compound 141]
≥ 80%: pest or weed control at 200 ppm [1] | pest or weed control at 200 ppm [2] | pest or weed control at 200 ppm [3] | pest or weed control at 12.5 ppm [4] | pest or weed control at 200 ppm [5] | pest or weed control at 200 ppm [6] | pest or weed control at 200 ppm [7]

CCN(C(=O)c1ccc(F)cc1)c1cccc(C(=O)Nc2c(Cl)cc(C(F)(C(F)(F)F)C(F)(F)F)cc2OC(F)F)c1OC [Compound 156]
≥ 80%: pest or weed control at 200 ppm [1] | pest or weed control at 200 ppm [2] | pest or weed control at 200 ppm [3] | pest or weed control at 12.5 ppm [4] | pest or weed control at 200 ppm [5] | pest or weed control at 200 ppm [6] | pest or weed control at 200 ppm [7]

CCN(C(=O)c1ccc(F)cc1Cl)c1cccc(C(=O)Nc2c(Cl)cc(C(F)(C(F)(F)F)C(F)(F)F)cc2OC(F)F)c1OC [Compound 158]
≥ 80%: pest or weed control at 200 ppm [1] | pest or weed control at 200 ppm [2] | pest or weed control at 200 ppm [3] | pest or weed control at 12.5 ppm [4] | pest or weed control at 200 ppm [5] | pest or weed control at 200 ppm [6] | pest or weed control at 200 ppm [7]

CCN(C(=O)c1ccc([N+](=O)[O-])cc1)c1cccc(C(=O)Nc2c(Br)cc(C(F)(C(F)(F)F)C(F)(F)F)cc2OC(F)F)c1OC [Compound 162]
≥ 80%: pest or weed control at 200 ppm [1] | pest or weed control at 200 ppm [2] | pest or weed control at 200 ppm [3] | pest or weed control at 12.5 ppm [4] | pest or weed control at 200 ppm [5] | pest or weed control at 200 ppm [6] | pest or weed control at 200 ppm [7]
